{"source": "patent US9006450B2", "about": "(Boehringer Ingelheim International GmbH, priority 2010, dated 2015)"}
{"molecular_target": "T1, human ACC2 (Homo sapiens, UniProt O00763)", "T1 construct": "made in house; host or cells: insect cells (baculoviral expression system)", "T1 sequence (O00763 129-2458 limits assumed)": "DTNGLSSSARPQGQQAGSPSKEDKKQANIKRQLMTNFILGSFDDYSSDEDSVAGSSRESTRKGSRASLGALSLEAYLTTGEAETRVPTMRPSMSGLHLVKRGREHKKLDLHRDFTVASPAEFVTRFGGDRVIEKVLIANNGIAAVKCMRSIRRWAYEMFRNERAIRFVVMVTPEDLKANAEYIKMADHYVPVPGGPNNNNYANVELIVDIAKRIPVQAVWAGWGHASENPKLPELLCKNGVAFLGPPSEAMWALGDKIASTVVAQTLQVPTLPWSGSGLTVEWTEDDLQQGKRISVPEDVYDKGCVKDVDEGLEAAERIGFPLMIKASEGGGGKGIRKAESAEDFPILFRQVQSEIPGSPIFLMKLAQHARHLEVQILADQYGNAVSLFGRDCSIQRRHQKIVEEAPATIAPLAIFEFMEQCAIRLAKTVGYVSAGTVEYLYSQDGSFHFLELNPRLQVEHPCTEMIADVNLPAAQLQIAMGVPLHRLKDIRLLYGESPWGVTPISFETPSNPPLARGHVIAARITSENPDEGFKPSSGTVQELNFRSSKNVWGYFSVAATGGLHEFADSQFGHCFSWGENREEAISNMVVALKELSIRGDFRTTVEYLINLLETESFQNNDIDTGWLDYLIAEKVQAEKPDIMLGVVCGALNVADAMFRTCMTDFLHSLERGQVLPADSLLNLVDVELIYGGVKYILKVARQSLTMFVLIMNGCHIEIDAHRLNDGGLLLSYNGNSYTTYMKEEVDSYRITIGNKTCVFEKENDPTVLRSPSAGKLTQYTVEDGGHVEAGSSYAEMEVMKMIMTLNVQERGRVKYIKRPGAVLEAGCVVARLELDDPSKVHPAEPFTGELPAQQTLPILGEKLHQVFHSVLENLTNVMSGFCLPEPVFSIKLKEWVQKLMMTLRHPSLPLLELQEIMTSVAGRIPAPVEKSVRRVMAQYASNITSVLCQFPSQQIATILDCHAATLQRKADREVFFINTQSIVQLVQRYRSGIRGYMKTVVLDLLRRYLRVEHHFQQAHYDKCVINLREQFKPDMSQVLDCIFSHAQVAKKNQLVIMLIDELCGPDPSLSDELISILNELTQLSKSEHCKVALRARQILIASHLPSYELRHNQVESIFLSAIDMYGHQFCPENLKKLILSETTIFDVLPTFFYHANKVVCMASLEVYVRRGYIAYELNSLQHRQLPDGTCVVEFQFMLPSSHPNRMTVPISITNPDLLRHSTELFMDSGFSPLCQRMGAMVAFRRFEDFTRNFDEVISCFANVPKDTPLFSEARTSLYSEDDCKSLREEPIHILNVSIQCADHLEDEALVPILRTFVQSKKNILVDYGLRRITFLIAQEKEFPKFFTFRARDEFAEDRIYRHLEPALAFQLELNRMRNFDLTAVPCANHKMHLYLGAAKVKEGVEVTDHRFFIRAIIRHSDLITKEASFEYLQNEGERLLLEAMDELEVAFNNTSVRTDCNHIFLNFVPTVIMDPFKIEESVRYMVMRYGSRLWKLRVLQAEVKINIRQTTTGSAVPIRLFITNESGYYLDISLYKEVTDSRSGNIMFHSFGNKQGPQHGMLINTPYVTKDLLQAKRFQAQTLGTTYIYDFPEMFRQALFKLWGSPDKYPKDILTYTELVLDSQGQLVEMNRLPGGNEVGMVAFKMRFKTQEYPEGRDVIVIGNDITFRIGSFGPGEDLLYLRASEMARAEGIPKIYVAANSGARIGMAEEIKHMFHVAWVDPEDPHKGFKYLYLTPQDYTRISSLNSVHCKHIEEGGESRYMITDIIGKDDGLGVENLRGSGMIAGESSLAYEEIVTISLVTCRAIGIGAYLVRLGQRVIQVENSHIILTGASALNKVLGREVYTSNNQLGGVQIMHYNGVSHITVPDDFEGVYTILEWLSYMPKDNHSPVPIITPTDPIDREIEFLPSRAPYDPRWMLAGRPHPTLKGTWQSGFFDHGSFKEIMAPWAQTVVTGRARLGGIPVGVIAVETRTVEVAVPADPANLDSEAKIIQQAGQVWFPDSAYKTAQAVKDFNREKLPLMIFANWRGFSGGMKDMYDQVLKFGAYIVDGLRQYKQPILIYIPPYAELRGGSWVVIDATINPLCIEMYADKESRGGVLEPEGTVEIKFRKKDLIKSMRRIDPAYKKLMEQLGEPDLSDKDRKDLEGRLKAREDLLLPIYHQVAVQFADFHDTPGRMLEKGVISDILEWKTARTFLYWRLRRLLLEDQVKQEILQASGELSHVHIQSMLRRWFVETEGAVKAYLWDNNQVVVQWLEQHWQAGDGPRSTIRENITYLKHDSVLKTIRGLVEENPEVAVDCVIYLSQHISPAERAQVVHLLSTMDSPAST", "experiment": "ACC2 assay, spectrophotometric 384 well assay (NADH-linked, coupled lactate dehydrogenase/pyruvate kinase)", "assay_type": "biochemical", "details": "ACC2 assay, hACC2 construct lacking 128 N-terminal amino acids, 25° C., 340 nm; read-out: IC50", "summary_of_the_method": "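ADP output tracked via pyruvate kinase/lactate dehydrogenase NADH oxidation, slope at 340 nm over 15 min, 25° C, with 500 μM ATP and 200 μM each acetyl-CoA and NADH. Enzyme: insect-cell-expressed human ACC2, N-terminal 128 residues deleted; pH 7.5 Tris with citrate, KHCO3. IC50 from four-parameter regression versus vehicle and no-acetyl-CoA controls.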", "units": {"IC50": "µM"}}
{"smiles": "C[C@H](NC(=O)N(C)C)c1ccc(C2CCN(c3ncc(-c4ccccc4)cn3)CC2)cc1", "note": "[Example 10.111]", "IC50": 0.17}
{"smiles": "Cc1ccc(-c2cnc(N3CCC(c4ccc([C@H](C)NC(=O)N(C)C)cc4)CC3)nc2)cc1", "note": "[Example 10.112]", "IC50": 0.12}
{"smiles": "C[C@H](NC(=O)N(C)C)c1ccc(C2CCN(c3ncc(-c4ccoc4)cn3)CC2)cc1", "note": "[Example 10.113]", "IC50": 0.53}
{"smiles": "CC(=O)N[C@@H](C)c1ccc(C2CCN(c3ncc(-c4ccc5cc[nH]c5c4)cn3)CC2)cc1", "note": "[Example 10.114]", "IC50": 0.41}
{"smiles": "COc1ccc2[nH]c(-c3cnc(N4CCC(c5ccc([C@H](C)NC(C)=O)cc5)CC4)nc3)cc2c1", "note": "[Example 10.115]", "IC50": 0.41}
{"smiles": "CC(=O)N[C@@H](C)c1ccc(C2CCN(c3ncc(-c4cc5ccc(C)cc5[nH]4)cn3)CC2)cc1", "note": "[Example 10.116]", "IC50": 0.46}
{"smiles": "CC(=O)N[C@@H](C)c1ccc(C2CCN(c3ncc(-c4cc5cc(C#N)ccc5[nH]4)cn3)CC2)cc1", "note": "[Example 10.117]", "IC50": 0.68}
{"smiles": "CC(=O)N[C@@H](C)c1ccc(C2CCN(c3ncc(-c4cccc5cc[nH]c45)cn3)CC2)cc1", "note": "[Example 10.118]", "IC50": 0.15}
{"smiles": "CC(=O)N[C@@H](C)c1ccc(C2CCN(c3ncc(-c4cc5ccccc5[nH]4)cn3)CC2)cc1", "note": "[Example 10.119]", "IC50": 0.31}
{"smiles": "CC(=O)N[C@@H](C)c1ccc(C2CCN(c3ncc(-c4cccc5[nH]ccc45)cn3)CC2)cc1", "note": "[Example 10.120]", "IC50": 0.74}
{"smiles": "CC(=O)N[C@@H](C)c1ccc(C2CCN(c3ncc(-c4ccc(C)cn4)cn3)CC2)cc1", "note": "[Example 10.121]", "IC50": 0.11}
{"smiles": "CC(=O)N[C@@H](C)c1ccc(C2CCN(c3ncc(-c4cc(C)ccn4)cn3)CC2)cc1", "note": "[Example 10.122]", "IC50": 0.15}
{"smiles": "CC(=O)N[C@@H](C)c1ccc(C2CCN(c3ncc(-c4cccc(CC#N)c4)cn3)CC2)cc1", "note": "[Example 10.123]", "IC50": 0.42}
{"smiles": "CCOc1ccc(-c2cnc(N3CCC(c4ccc([C@H](C)NC(C)=O)cc4)CC3)nc2)cc1C", "note": "[Example 10.125]", "IC50": 0.64}
{"smiles": "CC(=O)N[C@@H](C)c1ccc(C2CCN(c3ncc(-c4ccc(OC(C)C)c(C)c4)cn3)CC2)cc1", "note": "[Example 10.126]", "IC50": 1.3}
{"smiles": "COc1cc(C)c(-c2cnc(N3CCC(c4ccc([C@H](C)NC(C)=O)cc4)CC3)nc2)cc1C", "note": "[Example 10.127]", "IC50": 1.6}
{"smiles": "COc1cc(-c2cnc(N3CCC(c4ccc([C@H](C)NC(C)=O)cc4)CC3)nc2)ccc1C#N", "note": "[Example 10.128]", "IC50": 0.14}
{"smiles": "CC(=O)N[C@@H](C)c1ccc(C2CCN(c3ncc(-c4ccc(C)cc4F)cn3)CC2)cc1", "note": "[Example 10.129]", "IC50": 0.34}
{"smiles": "CC(=O)N[C@@H](C)c1ccc(C2CCN(c3ncc(-c4cccs4)cn3)CC2)cc1", "note": "[Example 10.130]", "IC50": 0.04}
{"smiles": "CC(=O)N[C@@H](C)c1ccc(C2CCN(c3ncc(CC(C)C)cn3)CC2)cc1", "note": "[Example 10.201]", "IC50": 0.34}
{"smiles": "CC(=O)N[C@@H](C)c1ccc(C2CCN(c3ncc(C4CC4)cn3)CC2)cc1", "note": "[Example 10.202]", "IC50": 0.57}
{"smiles": "CC(=O)N[C@@H](C)c1ccc(C2CCN(c3ncc(-c4ccccn4)cn3)CC2)cc1", "note": "[Example 10.203]", "IC50": 0.16}
{"smiles": "COc1cc(C)c(-c2cnc(N3CCC(c4ccc([C@H](C)NC(C)=O)cc4)CC3)nc2)c(C)c1", "note": "[Example 10.204]", "IC50": 0.35}
{"smiles": "CC(=O)N[C@@H](C)c1ccc(C2CCN(c3ccc(-c4ccc5[nH]ccc5c4)cn3)CC2)cc1", "note": "[Example 10.301]", "IC50": 0.32}
{"smiles": "CC(=O)N[C@@H](C)c1ccc(C2CCN(c3ncc(-c4ccc5[nH]ccc5c4)cc3F)CC2)cc1", "note": "[Example 10.302]", "IC50": 0.43}
{"smiles": "CC(=O)N[C@@H](C)c1ccc(C2CCN(c3nccc(C4CC4)c3C)CC2)cc1", "note": "[Example 10.303]", "IC50": 0.16}
{"smiles": "CC(=O)N[C@@H](C)c1ccc(C2CCN(c3ccc(C4CC4)cn3)CC2)cc1", "note": "[Example 10.304]", "IC50": 0.75}
{"smiles": "CC(=O)N[C@@H](C)c1ccc(C2CCN(c3ncc(C4CC4)cc3F)CC2)cc1", "note": "[Example 10.305]", "IC50": 0.46}
{"smiles": "CCOc1cccc(-c2ccc(N3CCC(c4ccc([C@H](C)NC(C)=O)cc4)CC3)nc2)c1", "note": "[Example 10.306]", "IC50": 0.31}
{"smiles": "CCOc1cccc(-c2cnc(N3CCC(c4ccc([C@H](C)NC(C)=O)cc4)CC3)c(F)c2)c1", "note": "[Example 10.307]", "IC50": 0.31}
{"smiles": "CC(=O)N[C@@H](C)c1ccc(C2CCN(c3ccc(-c4ccc(C#N)s4)cn3)CC2)cc1", "note": "[Example 10.308]", "IC50": 0.08}
{"smiles": "CC(=O)N[C@@H](C)c1ccc(C2CCN(c3ncc(-c4ccc(C#N)s4)cc3F)CC2)cc1", "note": "[Example 10.309]", "IC50": 0.08}
{"smiles": "CC(=O)N[C@@H](C)c1ccc(C2CCN(c3ccc(-c4ccc(F)cc4)cn3)CC2)cc1", "note": "[Example 10.310]", "IC50": 0.04}
{"smiles": "CC(=O)N[C@@H](C)c1ccc(C2CCN(c3ncc(-c4ccc(F)cc4)cc3F)CC2)cc1", "note": "[Example 10.311]", "IC50": 0.18}
{"smiles": "CC(=O)N[C@@H](C)c1ccc(C2CCN(c3ccc(-c4ccc5c(c4)OCO5)cn3)CC2)cc1", "note": "[Example 10.312]", "IC50": 0.16}
{"smiles": "CC(=O)N[C@@H](C)c1ccc(C2CCN(c3ncc(-c4ccc5c(c4)OCO5)cc3F)CC2)cc1", "note": "[Example 10.313]", "IC50": 0.12}
{"smiles": "CC(=O)N[C@@H](C)c1ccc(C2CCN(c3ccc(-c4ccc(C)cc4)cn3)CC2)cc1", "note": "[Example 10.314]", "IC50": 0.28}
{"smiles": "CC(=O)N[C@@H](C)c1ccc(C2CCN(c3ncc(-c4ccc(C)cc4)cc3F)CC2)cc1", "note": "[Example 10.315]", "IC50": 0.12}
{"smiles": "CCCOc1cc(N2CCC(c3ccc([C@H](C)NC(C)=O)cc3)CC2)ncn1", "note": "[Example 11.1]", "IC50": 0.18}
{"smiles": "CC(=O)N[C@@H](C)c1ccc(C2CCN(c3cc(OC(C)C)ncn3)CC2)cc1", "note": "[Example 11.2]", "IC50": 0.08}
{"smiles": "CC(=O)N[C@@H](C)c1ccc(C2CCN(c3cc(OCCC4CC4)ncn3)CC2)cc1", "note": "[Example 11.3]", "IC50": 0.25}
{"smiles": "CC(=O)N[C@@H](C)c1ccc(C2CCN(c3ccnc(OCCC4CC4)n3)CC2)cc1", "note": "[Example 11.4]", "IC50": 0.45}
{"smiles": "CC(=O)N[C@@H](C)c1ccc(C2CCN(c3cc(Oc4ccc(F)cc4)ncn3)CC2)cc1", "note": "[Example 11.5]", "IC50": 0.2}
{"smiles": "CC(=O)N[C@@H](C)c1ccc(C2CCN(c3ccnc(Oc4ccc(F)cc4)n3)CC2)cc1", "note": "[Example 11.6]", "IC50": 0.18}
{"smiles": "CC(=O)N[C@@H](C)c1ccc(C2CCN(c3cc(OC4CCCC4)ncn3)CC2)cc1", "note": "[Example 11.7]", "IC50": 0.17}
{"smiles": "CC(=O)N[C@@H](C)c1ccc(C2CCN(c3ccnc(OC4CCCC4)n3)CC2)cc1", "note": "[Example 11.8]", "IC50": 0.49}
{"smiles": "CC(=O)N[C@@H](C)c1ccc(C2CCN(c3ccnc(OCC4CCCC4)n3)CC2)cc1", "note": "[Example 11.9]", "IC50": 0.38}
{"smiles": "CC(=O)N[C@@H](C)c1ccc(C2CCN(c3cc(OCC4CCCC4)ncn3)CC2)cc1", "note": "[Example 11.10]", "IC50": 0.27}
{"smiles": "CC(=O)N[C@@H](C)c1ccc(C2CCN(c3ccnc(OCCC(C)(C)C)n3)CC2)cc1", "note": "[Example 11.11]", "IC50": 0.82}
{"smiles": "CC(=O)N[C@@H](C)c1ccc(C2CCN(c3cc(OCCC(C)(C)C)ncn3)CC2)cc1", "note": "[Example 11.12]", "IC50": 0.3}
{"smiles": "CC(=O)N[C@@H](C)c1ccc(C2CCN(c3ccnc(OCCc4ccccc4)n3)CC2)cc1", "note": "[Example 11.13]", "IC50": 4.6}
{"smiles": "CC(=O)N[C@@H](C)c1ccc(C2CCN(c3cc(OCCc4ccccc4)ncn3)CC2)cc1", "note": "[Example 11.14]", "IC50": 3.5}
{"smiles": "CC(=O)N[C@@H](C)c1ccc(C2CCN(c3cc(OCC(C)C)ncn3)CC2)cc1", "note": "[Example 11.15]", "IC50": 0.23}
{"smiles": "CC(=O)N[C@@H](C)c1ccc(C2CCN(c3ccnc(OCC(C)C)n3)CC2)cc1", "note": "[Example 11.16]", "IC50": 0.43}
{"smiles": "CC(=O)N[C@@H](C)c1ccc(C2CCN(c3cc(O[C@H]4CCOC4)ncn3)CC2)cc1", "note": "[Example 11.17]", "IC50": 1.2}
{"smiles": "CC(=O)N[C@@H](C)c1ccc(C2CCN(c3ccnc(O[C@H]4CCOC4)n3)CC2)cc1", "note": "[Example 11.18]", "IC50": 6.2}
{"smiles": "CC#CCOc1cc(N2CCC(c3ccc([C@H](C)NC(C)=O)cc3)CC2)ncn1", "note": "[Example 11.19]", "IC50": 0.88}
{"smiles": "CC#CCOc1nccc(N2CCC(c3ccc([C@H](C)NC(C)=O)cc3)CC2)n1", "note": "[Example 11.20]", "IC50": 1.3}
{"smiles": "CCC(CC)Oc1nccc(N2CCC(c3ccc([C@H](C)NC(C)=O)cc3)CC2)n1", "note": "[Example 11.21]", "IC50": 0.89}
{"smiles": "CCC(CC)Oc1cc(N2CCC(c3ccc([C@H](C)NC(C)=O)cc3)CC2)ncn1", "note": "[Example 11.22]", "IC50": 0.82}
{"smiles": "CC(=O)N[C@@H](C)c1ccc(C2CCN(c3ccnc(OCc4ccccc4)n3)CC2)cc1", "note": "[Example 11.23]", "IC50": 1.5}
{"smiles": "CC(=O)N[C@@H](C)c1ccc(C2CCN(c3cc(OCc4ccccc4)ncn3)CC2)cc1", "note": "[Example 11.24]", "IC50": 0.37}
{"smiles": "CC(=O)N[C@@H](C)c1ccc(C2CCN(c3cc(Oc4ccccc4F)ncn3)CC2)cc1", "note": "[Example 11.25]", "IC50": 0.24}
{"smiles": "CC(=O)N[C@@H](C)c1ccc(C2CCN(c3ccnc(Oc4ccccc4F)n3)CC2)cc1", "note": "[Example 11.26]", "IC50": 0.38}
{"smiles": "CC(=O)N[C@@H](C)c1ccc(C2CCN(c3cc(Oc4cccc(F)c4)ncn3)CC2)cc1", "note": "[Example 11.27]", "IC50": 0.3}
{"smiles": "CC(=O)N[C@@H](C)c1ccc(C2CCN(c3ccnc(Oc4cccc(F)c4)n3)CC2)cc1", "note": "[Example 11.28]", "IC50": 0.35}
{"smiles": "COCCOc1cc(N2CCC(c3ccc([C@H](C)NC(C)=O)cc3)CC2)ncn1", "note": "[Example 11.29]", "IC50": 3.8}
{"smiles": "COCCOc1nccc(N2CCC(c3ccc([C@H](C)NC(C)=O)cc3)CC2)n1", "note": "[Example 11.30]", "IC50": 8.4}
{"smiles": "COc1cccc(Oc2cc(N3CCC(c4ccc([C@H](C)NC(C)=O)cc4)CC3)ncn2)c1", "note": "[Example 11.31]", "IC50": 0.69}
{"smiles": "COc1cccc(Oc2nccc(N3CCC(c4ccc([C@H](C)NC(C)=O)cc4)CC3)n2)c1", "note": "[Example 11.32]", "IC50": 1.1}
{"smiles": "CC(=O)N[C@@H](C)c1ccc(C2CCN(c3cc(OCc4cccnc4)ncn3)CC2)cc1", "note": "[Example 11.33]", "IC50": 0.59}
{"smiles": "CC(=O)N[C@@H](C)c1ccc(C2CCN(c3ccnc(OCc4cccnc4)n3)CC2)cc1", "note": "[Example 11.34]", "IC50": 23.2}
{"smiles": "CC(=O)N[C@@H](C)c1ccc(C2CCN(c3cc(OCC4(C#N)CC4)ncn3)CC2)cc1", "note": "[Example 11.35]", "IC50": 0.71}
